Assay results: patent US12583861B2, “Derivatives of imidazo[4,5-d]pyridazine, their preparation and their therapeutic application” (SANOFI, priority 2021, dated 2026)
Where a name gives a salt, the structure may show the parent alone.

How the values were obtained:
human TLR7 = target: T1, human TLR7 (Homo sapiens, UniProt Q9NYK1); experiment: HEK-Blue hTLR7 reporter cell assay (SEAP, NF-kB/AP-1) for stimulation of human TLR7; format: cell-based; conditions: HEK-Blue hTLR7 cells; for EC50: 24 h incubation, SEAP readout, read-out: TLR7_EC50; for activation at 20 µM: 24 h, at 20000 nM
T1 construct: host or cells: HEK293 (HEK-Blue hTLR7)
T1 sequence (Q9NYK1 27-1049): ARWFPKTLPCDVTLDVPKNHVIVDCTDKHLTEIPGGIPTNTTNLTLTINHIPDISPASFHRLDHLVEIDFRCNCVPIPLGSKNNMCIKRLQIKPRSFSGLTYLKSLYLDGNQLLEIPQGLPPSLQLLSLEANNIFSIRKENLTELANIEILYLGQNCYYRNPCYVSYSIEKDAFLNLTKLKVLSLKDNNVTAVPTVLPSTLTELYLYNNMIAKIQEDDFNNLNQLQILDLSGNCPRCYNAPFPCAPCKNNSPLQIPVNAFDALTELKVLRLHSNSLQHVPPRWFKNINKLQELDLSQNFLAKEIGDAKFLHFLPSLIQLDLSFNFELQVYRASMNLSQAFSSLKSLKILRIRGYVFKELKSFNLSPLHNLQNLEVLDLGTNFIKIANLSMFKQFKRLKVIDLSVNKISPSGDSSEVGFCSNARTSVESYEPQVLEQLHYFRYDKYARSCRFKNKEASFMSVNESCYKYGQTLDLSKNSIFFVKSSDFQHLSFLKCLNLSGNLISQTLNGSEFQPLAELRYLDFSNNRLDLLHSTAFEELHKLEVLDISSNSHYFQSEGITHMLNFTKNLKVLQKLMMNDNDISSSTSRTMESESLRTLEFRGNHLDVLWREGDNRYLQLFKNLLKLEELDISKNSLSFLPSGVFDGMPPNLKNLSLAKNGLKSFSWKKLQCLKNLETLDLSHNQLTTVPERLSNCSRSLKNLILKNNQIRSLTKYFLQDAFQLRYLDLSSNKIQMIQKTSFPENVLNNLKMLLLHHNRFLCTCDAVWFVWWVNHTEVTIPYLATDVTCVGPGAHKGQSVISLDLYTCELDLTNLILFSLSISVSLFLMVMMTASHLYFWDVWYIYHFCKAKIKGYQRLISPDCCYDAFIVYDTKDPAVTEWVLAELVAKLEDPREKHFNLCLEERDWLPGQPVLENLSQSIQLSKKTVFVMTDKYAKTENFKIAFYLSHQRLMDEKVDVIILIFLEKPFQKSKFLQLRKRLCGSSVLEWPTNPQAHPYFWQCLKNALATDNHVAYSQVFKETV
In short: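 HEK293 cells expressing hTLR7 with NF-κB/AP-1-driven SEAP reporter, seeded 3.10E4 cells/well, pre-incubated 18–24 h, then exposed to 3-fold compound dilutions (0.01–20 μM) for 24 h at 37 °C. Supernatant SEAP read with QUANTI-Blue; EC50 as concentration giving 50% activation.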

human TLR8 = target: T2, human TLR8 (Homo sapiens, UniProt Q9NR97); experiment: HEK-Blue hTLR8 reporter cell assay (SEAP, NF-kB/AP-1) for stimulation of human TLR8; format: cell-based; conditions: HEK-Blue hTLR8 cells; for EC50: 24 h incubation, SEAP readout, read-out: TLR8_EC50; for activation at 20 µM: 24 h, at 20000 nM
T2 construct: host or cells: HEK293 (HEK-Blue hTLR8)
T2 sequence (Q9NR97 27-1041): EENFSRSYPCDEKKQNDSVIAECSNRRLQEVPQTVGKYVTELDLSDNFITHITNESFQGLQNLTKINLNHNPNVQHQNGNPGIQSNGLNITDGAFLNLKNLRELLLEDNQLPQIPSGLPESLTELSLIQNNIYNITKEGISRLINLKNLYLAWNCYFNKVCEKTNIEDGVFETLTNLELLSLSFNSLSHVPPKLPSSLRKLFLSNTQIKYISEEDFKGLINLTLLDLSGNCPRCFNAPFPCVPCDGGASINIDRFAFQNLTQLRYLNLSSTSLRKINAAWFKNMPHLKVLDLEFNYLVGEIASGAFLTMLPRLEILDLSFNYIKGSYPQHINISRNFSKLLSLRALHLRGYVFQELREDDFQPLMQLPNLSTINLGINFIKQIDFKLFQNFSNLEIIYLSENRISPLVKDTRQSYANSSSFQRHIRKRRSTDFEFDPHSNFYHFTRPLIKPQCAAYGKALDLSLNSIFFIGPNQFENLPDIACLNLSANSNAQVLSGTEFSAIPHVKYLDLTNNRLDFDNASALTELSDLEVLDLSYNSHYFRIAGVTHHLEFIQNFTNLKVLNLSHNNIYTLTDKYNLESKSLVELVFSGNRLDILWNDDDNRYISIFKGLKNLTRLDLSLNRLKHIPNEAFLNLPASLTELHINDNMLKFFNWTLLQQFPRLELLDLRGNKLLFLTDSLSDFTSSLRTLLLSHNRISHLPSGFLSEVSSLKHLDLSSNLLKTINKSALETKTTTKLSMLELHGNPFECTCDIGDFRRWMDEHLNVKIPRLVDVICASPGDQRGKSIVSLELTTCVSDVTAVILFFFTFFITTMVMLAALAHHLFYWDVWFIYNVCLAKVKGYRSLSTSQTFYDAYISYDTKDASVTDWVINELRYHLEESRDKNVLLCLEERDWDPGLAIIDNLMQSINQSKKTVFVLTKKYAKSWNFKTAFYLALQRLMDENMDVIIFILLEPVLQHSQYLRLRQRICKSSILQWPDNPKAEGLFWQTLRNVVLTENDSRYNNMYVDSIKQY
In short: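 HEK293 cells carrying hTLR8 and a SEAP reporter driven by NF-κB/AP-1 sites were seeded at 3.10E4 cells/well and held 18 to 24 h at 37° C., 5% CO2 before compound addition. Supernatant SEAP measured with QUANTI-Blue™.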

EC50 (human TLR7) [µM] | EC50 (human TLR8) [µM] | activation at 20 µM (human TLR7) [%] | activation at 20 µM (human TLR8) [%] | SMILES
7.74 | > 20 |  |  | CCCCc1nc2c(N)nnc(OC(C)C)c2n1CCC1CCNCC1 [Compound 78, 2-butyl-7-isopropoxy-1-(2-(piperidin-4-yl)ethyl)-1H-imidazo[4,5-d]pyridazin-4-amine]
9.71 | > 20 |  |  | CCCCc1nc2c(N)nnc(OC(C)C)c2n1CCN1CCNCC1 [Compound 79, 2-butyl-7-isopropoxy-1-(2-(piperazin-1-yl)ethyl)-1H-imidazo[4,5-d]pyridazin-4-amine]
0.169 | > 20 |  |  | CCCCc1nc2c(N)nnc(OC(C)C)c2n1Cc1ccccc1 [Compound 80, 1-benzyl-2-butyl-7-isopropoxy-1H-imidazo[4,5-d]pyridazin-4-amine hydrochloride]
0.117 | > 20 |  |  | CCCCc1nc2c(N)nnc(OC(C)C)c2n1CC1CCCCC1 [Compound 81, 2-butyl-1-(cyclohexylmethyl)-7-isopropoxy-1H-imidazo[4,5-d]pyridazin-4-amine hydrochloride]
0.013 | 0.303 |  |  | CCCCc1nc2c(N)nnc(OC(C)C)c2n1Cc1ccc(CNC2CCOCC2)cc1 [Compound 82, 2-butyl-7-isopropoxy-1-(4-(((tetrahydro-2H-pyran-4-yl)amino)methyl)benzyl)-1H-imidazo[4,5-d]pyridazin-4-amine hydrochloride]
0.008 | 0.637 |  |  | CCCCc1nc2c(N)nnc(OC(C)C)c2n1Cc1ccc(CNC(C)C)cc1 [Compound 83, 2-butyl-7-isopropoxy-1-(4-((isopropylamino)methyl)benzyl)-1H-imidazo[4,5-d]pyridazin-4-amine dihydrochloride]
0.263 | 1.81 |  |  | CCCCCCC(=O)NCc1ccc(Cn2c(CCCC)nc3c(N)nnc(OC(C)C)c32)cc1 [Compound 84, N-(4-((4-amino-2-butyl-7-isopropoxy-1H-imidazo[4,5-d]pyridazin-1-yl)methyl)benzyl)heptanamide]
0.606 | 3.1 |  |  | CCCCc1nc2c(N)nnc(N3CCC(c4ccc(CO)cc4)C3)c2n1C (stereo not drawn) [Compound 85, (4-(1-(4-amino-2-butyl-1-methyl-1H-imidazo[4,5-d]pyridazin-7-yl)pyrrolidin-3-yl)phenyl)methanol hydrochloride]
4.4 | 6.96 |  |  | CCCCc1nc2c(N)nnc(OC(C)C)c2n1C [Compound 86, 2-butyl-7-isopropoxy-1-methyl-1H-imidazo[4,5-d]pyridazin-4-amine]
8.52 | > 20 |  |  | CCCCc1nc2c(N)nnc(NCc3ccc(CN)cc3)c2n1C [Compound 87, N7-(4-(aminomethyl)benzyl)-2-butyl-1-methyl-1H-imidazo[4,5-d]pyridazine-4,7-diamine]
2.98 | 13.6 |  |  | CCCCc1nc2c(N)nnc(NC(C)C)c2n1C [Compound 88, 2-butyl-N7-isopropyl-1-methyl-1H-imidazo[4,5-d]pyridazine-4,7-diamine]
10.6 | 12.7 |  |  | CCCCc1nc2c(N)nnc(N(C)Cc3ccccc3)c2n1C [Compound 90, N7-benzyl-2-butyl-N7,1-dimethyl-1H-imidazo[4,5-d]pyridazine-4,7-diamine]
 |  | 45 | 10 | CCCCc1nc2c(N)nnc(NCc3ccc(CN4CCN(C)CC4)cc3)c2n1C [Compound 91, 2-butyl-1-methyl-N7-(4-((4-methylpiperazin-1-yl)methyl)benzyl)-1H-imidazo[4,5-d]pyridazine-4,7-diamine]
7.97 |  |  | 15 | CCCCc1nc2c(N)nnc(-c3ccccc3)c2n1Cc1ccc(OC)cc1 [Compound 92, 2-butyl-1-(4-methoxybenzyl)-7-phenyl-1H-imidazo[4,5-d]pyridazin-4-amine]
> 20 |  |  | 17 | CCCCc1nc2c(N)nnc(O)c2n1Cc1ccc(OC)cc1 [Compound 93, 4-amino-2-butyl-1-(4-methoxybenzyl)-1H-imidazo[4,5-d]pyridazin-7-ol]
0.226 |  |  | 11 | CCCCc1nc2c(N)nnc(NCCCc3ccco3)c2n1Cc1ccc(OC)cc1 [Compound 94, 2-butyl-N7-(3-(furan-2-yl)propyl)-1-(4-methoxybenzyl)-1H-imidazo[4,5-d]pyridazine-4,7-diamine]
 |  | 15 | 20.5 | CCCCc1nc2c(N)nncc2n1Cc1ccc(OC)cc1 [Compound 95, 2-butyl-1-(4-methoxybenzyl)-1H-imidazo[4,5-d]pyridazin-4-amine]
> 20 |  |  | 22.7 | CCCCc1nc2c(N)nnc(-c3cc[nH]n3)c2n1Cc1ccc(OC)cc1 [Compound 96, 2-butyl-1-(4-methoxybenzyl)-7-(1H-pyrazol-3-yl)-1H-imidazo[4,5-d]pyridazin-4-amine]
 | > 20 | 13 |  | CCCCc1nc2c(N)nnc(-c3cnn(C)c3)c2n1Cc1ccc(OC)cc1 [Compound 97, 2-butyl-1-(4-methoxybenzyl)-7-(1-methyl-1H-pyrazol-4-yl)-1H-imidazo[4,5-d]pyridazin-4-amine]
 |  | 8 | 6 | CCCCc1nc2c(N)nnc(NC(C)C)c2[nH]1 [Compound 98, 2-butyl-N7-isopropyl-1H-imidazo[4,5-d]pyridazine-4,7-diamine]
13.6 |  |  | 18 | CCCCc1nc2c(N)nnc(SC(C)C)c2[nH]1 [Compound 99, 2-butyl-7-(isopropylthio)-1H-imidazo[4,5-d]pyridazin-4-amine]
0.036 | 2.17 |  |  | CCCCc1nc2c(N)nnc(OC(C)C)c2n1Cc1ccc(CN[C@H]2C[C@H](O)C2)cc1 [Compound 100, (1R,3R)-3-((4-((4-amino-2-butyl-7-isopropoxy-1H-imidazo[4,5-d]pyridazin-1-yl)methyl)benzyl)amino)cyclobutan-1-ol dihydrochloride salt]
0.013 | 0.355 |  |  | CCCCc1nc2c(N)nnc(OC(C)C)c2n1Cc1ccc(CN2CCCC2)cc1 [Compound 101, 2-butyl-7-isopropoxy-1-(4-(pyrrolidin-1-ylmethyl)benzyl)-1H-imidazo[4,5-d]pyridazin-4-amine]
0.071 | 3.83 |  |  | CCCCc1nc2c(N)nnc(OC(C)C)c2n1Cc1ccc(CN2CCOCC2)cc1 [Compound 102, 2-butyl-7-isopropoxy-1-(4-(morpholinomethyl)benzyl)-1H-imidazo[4,5-d]pyridazin-4-amine]
